The target of assay [1] is T1, Human plasma kallikrein (Homo sapiens, UniProt P03952).
T1 construct: yields a heavy chain (371 amino acids) and a light chain (248 amino acids); purchased Enzyme Research Laboratories
In words: Plasma Kallikrein Assay. The class given is biochemical. The note with it: purified Human plasma kallikrein 0.5 nM, substrate Acetyl-K-P-R-AFC; read-out: PKal IC50. How it is done: (§1) The effectiveness of a compound of the present invention as an inhibitor of plasma kallikrein can be determined using a relevant purified serine protease, and an appropriate synthetic substrate. The rate of hydrolysis of the chromogenic or fluorogenic substrate by the relevant serine protease was measured both in the absence and presence of compounds of the present invention. Assays were conducted at rt or at 37° C. […] A decrease in the rate of fluorescence change in the presence of inhibitor is indicative of enzyme inhibition. Such methods are known to one skilled in the art. The results of this assay are expressed as the half-maximal inhibitory concentrations (IC50), or the inhibitory constant, Ki.
Plasma kallikrein determinations were made in 50 mM HEPES buffer at pH 7.4 containing 150 mM NaCl, 5 mM CaCl2), and 0.1% PEG 8000 (polyethylene glycol; Fisher Scientific). Determinations were made using purified Human plasma kallikrein at a final concentration of 0.5 nM (Enzyme Research Laboratories) and the synthetic substrate, Acetyl-K-P-R-AFC (Sigma #C6608) at a concentration of […].
Times required to achieve equilibration between enzyme and inhibitor were determined in control experiments. […] IC50 was determined by inflection point from a four parameter logistic curve fit. Ki was calculated using the Cheng Prusoff equation, Ki=IC50/(1+([S]/Km)).

For assay [2], the target named is T2, human factor XIa (Homo sapiens, UniProt P03951).
T2 construct: with human (0.04 nM) factor XIa
In words: Factor XIa Assay. The note with it: human factor XIa 0.04 nM, substrate GPR-AFC, 25° C. The class given is biochemical. As to the method:
as §1, with “Coagulation factor XIa” for “plasma kallikrein”
Compounds were pre-incubated for 30 min at 25° C. with human (0.04 nM) factor XIa in 50 mM HEPES buffer with 150 mM sodium chloride, 5 mM calcium chloride, 0.1% PEG 8000, pH 7.4. factor XIa enzymatic activity was determined by addition of the substrate glycine-proline-arginine-7-amido-4-trifluoromethylcoumarin (GPR-AFC) and measurement of the fluorescence at 400/505 nm after a 60 min incubation at 25° C. The % inhibition for each data point was calculated from the data and analyzed using the log (inhibitor) vs. response four parameters equation to determine the half-maximal inhibitory concentrations (IC50). The IC50 were converted to equilibrium inhibitory constants (Ki) using the Cheng-Prusoff equation.

This is an account of results in patent US20250099478A1, “PLASMA KALLIKREIN INHIBITORS” (Merck Sharp & Dohme LLC, priority 2022, published 2025).

T1 sequence (P03952 391-638 limits assumed): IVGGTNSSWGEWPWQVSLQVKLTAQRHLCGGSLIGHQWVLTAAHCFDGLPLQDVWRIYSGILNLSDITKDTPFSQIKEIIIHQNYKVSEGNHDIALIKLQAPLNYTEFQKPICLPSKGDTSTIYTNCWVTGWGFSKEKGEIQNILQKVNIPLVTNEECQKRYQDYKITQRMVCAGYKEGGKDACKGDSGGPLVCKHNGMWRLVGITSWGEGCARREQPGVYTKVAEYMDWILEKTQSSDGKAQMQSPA
T1 sequence (P03952 20-390 partner limits assumed): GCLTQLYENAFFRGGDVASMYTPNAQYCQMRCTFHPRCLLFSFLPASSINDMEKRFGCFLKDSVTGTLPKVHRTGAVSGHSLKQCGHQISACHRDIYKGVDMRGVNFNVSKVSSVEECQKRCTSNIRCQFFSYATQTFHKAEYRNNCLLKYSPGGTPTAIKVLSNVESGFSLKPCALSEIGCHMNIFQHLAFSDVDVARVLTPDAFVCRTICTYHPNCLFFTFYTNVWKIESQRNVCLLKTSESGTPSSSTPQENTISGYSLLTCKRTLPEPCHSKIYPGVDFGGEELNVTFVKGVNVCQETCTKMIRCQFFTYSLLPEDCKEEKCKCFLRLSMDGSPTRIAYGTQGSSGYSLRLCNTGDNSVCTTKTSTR
T2 sequence (P03951 388-625 limits assumed): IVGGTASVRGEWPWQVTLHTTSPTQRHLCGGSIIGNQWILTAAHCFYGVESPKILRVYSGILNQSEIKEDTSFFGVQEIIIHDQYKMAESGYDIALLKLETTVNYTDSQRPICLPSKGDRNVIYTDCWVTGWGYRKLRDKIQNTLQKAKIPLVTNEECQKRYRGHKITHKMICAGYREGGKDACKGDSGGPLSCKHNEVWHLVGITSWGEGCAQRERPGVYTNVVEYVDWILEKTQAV
T2 sequence (P03951 19-387 partner limits assumed): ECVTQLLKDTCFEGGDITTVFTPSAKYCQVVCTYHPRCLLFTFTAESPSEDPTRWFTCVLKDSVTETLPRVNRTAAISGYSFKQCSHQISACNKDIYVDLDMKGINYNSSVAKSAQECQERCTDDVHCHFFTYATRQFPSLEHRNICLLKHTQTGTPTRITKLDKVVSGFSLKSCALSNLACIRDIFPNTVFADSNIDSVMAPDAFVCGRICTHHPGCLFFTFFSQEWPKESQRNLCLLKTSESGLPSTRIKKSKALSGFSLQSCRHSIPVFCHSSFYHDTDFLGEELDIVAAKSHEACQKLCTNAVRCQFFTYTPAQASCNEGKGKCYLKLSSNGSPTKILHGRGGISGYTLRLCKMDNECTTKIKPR

By IC50 is commonly meant the point on the concentration scale where inhibition reaches its midpoint. In the case of `O=C1Nc2ccc(Cl)c(F)c2[C@@]2(CCCN(C(=O)c3cnn([C@@H](CC4CC4)c4ccccc4)c3)C2)O1` (single isomer, unassigned) [Example 1], the concentration for half-maximal inhibition (IC50) amounted to 6.9 nM in assay [1] and 1570 nM in assay [2].

For the compound `CCC(c1ccc(F)cc1)n1cc(C(=O)N2CCC[C@@]3(C2)OC(=O)Nc2ccc(Cl)c(F)c23)cn1` (single isomer, unassigned) [Example 25], the IC50 in assay [1] was found to be 10.4 nM; in assay [2], 210 nM.

For the compound `CO[C@@H](C)[C@@H](c1ccccc1)n1cc(C(=O)N2CCC[C@@]3(C2)OC(=O)Nc2ccc(Cl)c(F)c23)cn1` [Example 11, (R)-6-Chloro-5-fluoro-1′-(1-((1R,2S)-2-methoxy-1-phenylpropyl)-1H-pyrazole-4-carbonyl)spiro[benzo[d][1,3]oxazine-4,3′-piepridine]-2(1H)-one], the IC50 in assay [1] turned out to be 20 nM; in assay [2] it was 4330 nM.

In the case of `CCC(c1ccnc(C(F)(F)F)c1)c1c[nH]c(C(=O)N2CCC[C@@]3(C2)OC(=O)Nc2ccc(Cl)c(F)c23)n1` (single isomer, unassigned) [Example 74, (R)-6-Chloro-5-fluoro-1′-(4-((S or R)-1-(2-(trifluoromethyl)pyridin-4-yl)propyl)-1H-imidazole-2-carbonyl)spiro[benzo[d][1,3]oxazine-4,3′-piperidin]-2(1H)-one], the IC50 was determined as 10.8 nM in assay [1] and 2750 nM in assay [2].

With `CCC(c1ccc(F)cc1)c1c[nH]c(C(=O)N2CC[C@@]3(C2)OC(=O)Nc2ccc(Cl)c(F)c23)n1` (single isomer, unassigned) [Example 66, (4R)-6-Chloro-5-fluoro-1′-(4-((S or R)-1-(4-fluorophenyl)propyl)-1H-imidazole-2-carbonyl)spiro[benzo[d][1,3]oxazine-4,3′-pyrrolidin]-2(1H)-one], the results for the IC50 in assay [1] and in assay [2] were 32.5 nM and 1360 nM, respectively.

As to `O=C1Nc2ccc(Cl)c(F)c2[C@@]2(CCCN(C(=O)c3nnc(C(c4ccccc4)C4CC4)[nH]3)C2)O1` (single isomer, unassigned) [Example 106], the IC50 worked out at 1.6 nM in assay [1] and 795 nM in assay [2].

As to `O=C1Nc2ccc(Cl)c(F)c2[C@@]2(CCCN(C(=O)c3cnn(Cc4ccccc4)c3)C2)O1` [Example 3, (R)-1′-(1-Benzyl-1H-pyrazole-4-carbonyl)-6-chloro-5-fluorospiro[benzo[d][1,3]oxazine-4,3′-piperidin]-2(1H)-one], half-maximal inhibition in assay [2] (IC50) required 1380 nM.

As for `N#Cc1ccc(Cn2cc(C(=O)N3CCC[C@@]4(C3)OC(=O)Nc3ccc(Cl)c(F)c34)cn2)cc1Cl` [Example 47, (R)-2-Chloro-4-((4-(6-chloro-5-fluoro-2-oxo-1,2-dihydrospiro[benzo[d][1.3]oxazine-4,3′-piperidine]-1′-carbonyl)-1H-pyrazol-1-yl)methyl)benzonitrile], the IC50 in assay [1] is 27.1 nM.

In the case of `O=C1Nc2ccc(Cl)c(F)c2[C@@]2(CCCN(C(=O)c3nnc(Cc4ccc5c(c4)CCO5)[nH]3)C2)O1` [Example 117, (R)-6-Chloro-1′-(5-((2,3-dihydrobenzofuran-5-yl)methyl)-4H-1,2,4-triazole-3-carbonyl)-5-fluorospiro[benzo[d][1,3]oxazine-4,3′-piperidin]-2(1H)-one], the IC50 in assay [1] was determined as 34.8 nM.

Take `O=C1Nc2ccc(Cl)c(F)c2[C@@]2(CCCN(C(=O)c3nnc(Cc4cccc(C(F)(F)F)c4)[nH]3)C2)O1` [Example 115, (R)-6-Chloro-5-fluoro-1′-(5-(3-(trifluoromethyl)benzyl)-4H-1,2,4-triazole-3-carbonyl)spiro[benzo[d][1,3]oxazine-4,3′-piperidin]-2(1H)-one]: the IC50 in assay [1] stood at 23.9 nM.

On to `O=C1Nc2ccc(Cl)c(F)c2[C@]2(CCN(C(=O)C3CCN(Cc4ccc(Cn5ccccc5=O)cc4)C3)C2)O1` (single isomer, unassigned) [Example 137], for which the IC50 in assay [1] was 31 nM.

As for `CC1(C)CN(C(=O)c2cnn(Cc3ccccc3)c2)C[C@]2(C1)OC(=O)Nc1ccc(Cl)c(F)c12` [Example 21, (R)-1′-(1-Benzyl-1H-pyrazole-4-carbonyl)-6-chloro-5-fluoro-5′,5′-dimethylspiro[benzo[d][1,3]oxazine-4,3′-piperidin]-2(1H)-one], the IC50 in assay [1] was found to be 12.1 nM.

On to `O=C1Nc2ccc(Cl)c(F)c2[C@@]2(CCCN(C(=O)c3nnc(Cc4cc(F)cc(F)c4)[nH]3)C2)O1` [Example 120, (R)-6-Chloro-1′-(5-(3,5-difluorobenzyl)-4H-1,2,4-triazole-3-carbonyl)-5-fluorospiro[benzo[d][1,3]oxazine-4,3′-piperidin]-2(1H)-one], for which the IC50 in assay [1] worked out at 21.1 nM.

Consider `O=C1Nc2ccc(Cl)c(F)c2[C@@]2(CCCN(C(=O)c3nnc(Cc4ccc(F)c(Cl)c4)[nH]3)C2)O1` [Example 87, (R)-6-Chloro-1′-(5-(3-chloro-4-fluorobenzyl)-4H-1,2,4-triazole-3-carbonyl)-5-fluorospiro[benzo[d][1,3]oxazine-4,3′-piperidin]-2(1H)-one], for which, in assay [1], the IC50 stood at 49.7 nM.

In the case of `O=C1Nc2ccc(Cl)c(F)c2[C@@]2(CCCN(C(=O)c3cnn(Cc4ccc5c(c4)CC(CO)O5)c3)C2)O1` (stereo partly drawn) [Example 58, (4R)-6-Chloro-5-fluoro-1′-(1-((2-(hydroxymethyl)-2,3-dihydrobenzofuran-5-yl)methyl)-1H-pyrazole-4-carbonyl)spiro[benzo[d][1,3]oxazine-4,3′-piperidin]-2(1H)-one], the IC50 in assay [1] is 10.7 nM.

As to `C[C@@H](c1cccc(Cl)c1)n1cc(C(=O)N2CCC[C@@]3(C2)OC(=O)Nc2ccc(Cl)c(F)c23)cn1` [Example 27, (R)-6-Chloro-1′-(1-((S)-1-(3-chlorophenyl)ethyl)-1H-pyrazole-4-carbonyl)-5-fluorospiro[benzo[d][1,3]oxazine-4,3′-piperidin]-2(1H)-one], in assay [1], the IC50 came to 10.9 nM.

Take `O=C1Nc2ccc(Cl)c(F)c2[C@]2(CCN(C(=O)C3(F)CCN(Cc4ccc(Cn5ccccc5=O)cc4)CC3)C2)O1` [Example 138, (4S)-6-Chloro-5-fluoro-1′-(4-fluoro-1-(4-((2-oxopyridin-1(2H)-yl)methyl)benzyl)piperidine-4-carbonyl)spiro[benzo[d][1,3]oxazine-4,3′-pyrrolidin]-2(1H)-one]: the half-maximal inhibitory concentration (IC50) in assay [1] was determined as 5.6 nM.

Take `O=C1Nc2ccc(Cl)c(F)c2[C@@]2(CCCN(C(=O)C3(F)CCN(Cc4ccccc4)C3)C2)O1` (single isomer, unassigned) [Example 131, (R)-1′-((S or R)-1-Benzyl-3-fluoropyrrolidine-3-carbonyl)-6-chloro-5-fluorospiro[benzo[d][1,3]oxazine-4,3′-piperidin]-2(1H)-one]: the IC50 in assay [1] came to 9.4 nM.

Take `Cc1cc(Cc2nnc(C(=O)N3CCC[C@@]4(C3)OC(=O)Nc3ccc(Cl)c(F)c34)[nH]2)cc2[nH]nnc12` [Example 123, (R)-6-Chloro-5-fluoro-1′-(5-((4-methyl-1H-benzo[d][1,2,3]triazol-6-yl)methyl)-4H-1,2,4-triazole-3-carbonyl)spiro[benzo[d][1,3]oxazine-4,3′-piperidin]-2(1H)-one]: in assay [1], the IC50 stood at 19.1 nM.

Regarding `O=C1Nc2ccc(Cl)c(F)c2[C@@]2(CCCN(C(=O)c3cnn(Cc4cnc5ccccn45)c3)C2)O1` [Example 19, (R)-6-Chloro-5-fluoro-1′-(1-(imidazo[1,2-a]pyridin-3-ylmethyl)-1H-pyrazole-4-carbonyl)spiro[benzo[d][1,3]oxazine-4,3′-piperidin]-2(1H)-one], the concentration for half-maximal inhibition (IC50) in assay [1] worked out at 27 nM.

Regarding `COC(=O)c1ccc(Cn2cc(C(=O)N3CCC[C@@]4(C3)OC(=O)Nc3ccc(Cl)c(F)c34)cn2)cc1F` [Example 49, Methyl (R)-4-((4-(6-chloro-5-fluoro-2-oxo-1,2-dihydrospiro[benzo[d][1,3]oxazine-4,3′-piperidine]-1′-carbonyl)-1H-pyrazol-1-yl)methyl)-2-fluorobenzoate], the IC50 in assay [1] was determined as 47 nM.

As for `CC[C@@H](c1ccc(F)cc1)c1nnc(C(=O)N2CCC[C@@]3(C2)OC(=O)Nc2ccc(Cl)c(F)c23)[nH]1` (single isomer, unassigned) [Example 84], the IC50 in assay [1] amounted to 4.5 nM.

`O=C1Nc2ccc(Cl)c(F)c2[C@@]2(CCCN(C(=O)c3cnn(Cc4ccc5c(c4)COCC5)c3)C2)O1` [Example 56, (R)-6-Chloro-5-fluoro-1′-(1-(isochroman-7-ylmethyl)-1H-pyrazole-4-carbonyl)spiro[benzo[d][1,3]oxazine-4,3′-piperidin]-2(1H)-one]: the IC50 in assay [1] was determined as 10.9 nM.
